{"source": "patent US20250346643A1", "about": "“TROPOMYOSIN KINASE RECEPTOR (TRK) LIGANDS AS THERAPEUTICS TO SUPPORT LIVER REGENERATION” (Vanderbilt University, priority 2024, published 2025)", "key": {"AML12 cells": {"tested_on": "AML12 cells", "test": "Cell proliferation assay (CellTiter-Glo) in AML12 cells", "assay_type": "cell-based, mouse", "conditions": "NTF3 20 ng/ml, AML12 (FIG. 9E-F)", "procedure": "Cell lines. Human HepG2 (ATCC HB-8065) were maintained in MEM media with 10% FBS and the mouse hepatocyte cell line AML12 (ATCC, Manassas, VA; CRL-2254) in DMEM/F12 media supplemented with dexamethasone (40 ng/ml) and Insulin-Transferrin-Selenium (Gibco, Waltham, MA; 41400045), containing 10% FBS and 1% penicillin and streptomycin. JS1 (RRID: CVCL_C7PL), LX2 (RRID: CVCL_5792, MilliporeSigma, Burlington, MA; SCC064) and TWNT4 (RRID: CVCL_W296) cells were cultured in DMEM supplemented with 10% FBS. 293T cells (ATCC, Manassas, VA; CRL-3216) were cultured in DMEM supplemented with 10% FBS.\nCell proliferation assays. Primary mouse hepatocytes, HepG2 or AML 12 cells were grown in opaque-walled 96-well plates. NTF3 (final concentration 20 ng/ml) (STEMCELL Technologies, Vancouver, Canada; cat. 78074) and/or Loxo-195 (final concentration 5 nM) (Selleckchem, Houston, TX; S8636) were added into complete growth media without L-glutamine. Primary mouse hepatocytes were also grown in serum-free William's E media without supplements. Cells were analyzed by CellTiter-Glo® (Promega G7570, Madison, WI) which detects the number of viable cells on day 0 to day 5 by on detection systems GloMax® (Promega) or Bioteck Synergy H1 (Agilent, Santa Clara, CA). Mouse recombinant HGF (Abcam, Cambridge, UK; ab281797) was added to cell culture media at a final concentration 5 ng/ml. […]"}, "CCND1 and PCNA": {"tested_on": "CCND1 and PCNA", "test": "Immunoblotting of mpPHH for CCND1 and PCNA", "assay_type": "cell-based, human", "conditions": "mpPHHs, NTF3", "procedure": "Mouse passaged primary human hepatocytes. Mouse-passaged primary human hepatocytes (mpPHHs) were collected as previously described (Michailidis et al., Proc Natl Acad Sci USA. 2020; 117(3): 1678-1688) and cultured in hepatocyte culture media (CC-3198, Lonza, Basel, Switzerland) in collagen-coated chamber slides. Three days before treatment, mpPHH were incubated in William's E media (with L-glutamine). […] 5-15 images per treatment per experiment were randomly taken and EdU positive nuclei quantified.\nImmunoblotting. […] Protein concentration of supernatants was determined by Direct Detect Spectrophotometer (MilliporeSigma, Burlington, MA). […] The protein concentration of supernatants was determined by a Direct Detect® spectrophotometer (MilliporeSigma, Burlington, MA). For immunoblot analysis, 10 to 50 μg of protein diluted in […] sample buffer (Invitrogen, Waltham, MA) were analyzed per SDS-polyacrylamide gel electrophoresis (NuPAGE™, Invitrogen, Waltham, MA) using Mops buffer or MES buffer (Invitrogen, Waltham, MA). […] Semi-quantitative band densitometry was performed using ImageJ software (version 1.53)."}, "CCND1": {"tested_on": "CCND1", "test": "Western blot of CCND1 in AML12 cell lysates", "assay_type": "cell-based, mouse", "conditions": "AML12 (FIG. 9I-J)", "procedure": "Human HepG2 and mouse AML12 cells were grown in 6-well plates. Cells were treated with NTF3 (20 ng/ml) purchased from STEMCELL technologies, Vancouver, Canada (cat. 78074), R&D Systems, Minneapolis, MN (267-N3), Gibco, Waltham, MA (PHC7036) and/or Loxo-195 (5-10 nM) (Selleckchem, Houston, TX; S8636) in complete growth media without L-glutamine for 2 hours. Lyophilized NTF3 was solubilized with sterile filtered PBS supplemented with 0.1% BSA, aliquoted and stored at −80° C. until use. […] HepG2 and AML12 cells were collected on ice in PBS, centrifuged for 10 sec […] cell pellet homogenized in RIPA buffer containing inhibitors (Roche, Basel, Switzerland; complete Mini proteinase inhibitor, 1×HALT phosphatase inhibitors, Thermo Scientific, Waltham, MA; cat. 78428). Cell lysates were sonicated and centrifuged for 10 min at 18,800×g. Protein concentration of supernatants were determined by Direct Detect Spectrophotometer (MilliporeSigma, Burlington, MA).\nFor immunoblot analysis, 30-50 μg of protein diluted in LSD sample buffer (Invitrogen, Waltham, MA) were analyzed per SDS-PAGE (NuPAGE™, Invitrogen, Waltham, MA) using MOPS buffer or MES buffer (Invitrogen, Waltham, MA). […] Semi-quantitative band densitometry was performed using ImageJ software (version 1.53)."}}, "data": [{"substance": "NTF3: neurotrophin-3, recombinant protein; HSC-derived hepatocyte mitogen, ligand of TRKA, TRKB, TRKC", "values": [{"measurement": "cell proliferation", "setting": "AML12 cells", "result": "greatly stimulated cell proliferation"}, {"measurement": "CCND1 and PCNA (immunoblotting)", "setting": "CCND1 and PCNA", "result": "induced CCND1 and PCNA"}, {"measurement": "CCND1 amounts, NTF3 from three different vendors", "setting": "CCND1", "result": "CCND1 amounts increased"}]}]}
